Reference: patent publication US12398154B2, “Azaquinazoline pan-KRas inhibitors” (Mirati Therapeutics, Inc., priority 2020, dated 2025)

Experiments:
pERK in HCT116 cells = experiment: Inhibition of KRas phosphorylation of ERK (Cisbio HTRF pERK assay); settings: Homo sapiens, HCT-116, read-out: Inhibition (HTRF IC50) of KRas-mediated Phosphorylation of ERK, HCT116
Procedure: (§2) To harvest cells from flask using 0.05% Trypsin/EDTA solution. Add 10 mL of media to stop trypsinizing. Pipette the cells into a conical bottom 50 mL centrifuge tube and centrifuge 5 min×1000 rpm. • 2. Re-suspend the cell pellet in media, take a cell count, and then adjust the cell density using fresh media. • 3. Seed 6,000 cells into cell culture plate with 50 μL media. […] Incubate cell plate overnight in a 37° C., 5% CO2 incubator. • Compound titrations • 1. Use Tecan to complete the compound addition. Compounds start from 10 uM top, 3-fold dilution, and 10 doses. The final DMSO concentration is 0.8%. Dispensed 0.2 uM Trametinib as Min control. • 2. Incubate cell plate for 3 hrs in the incubator. • Detection with cisbio pERK HTRF kit • 1. […] At the end of the compound treatment, flick-off the media. • 3. Add 35 μL of lysis buffer per well using a Multidrop Combi. Then place on a plate agitator shaking at 300 rpm at 4° C. for 40 mins. • 4. Make up the HTRF antibody buffer. For each assay plate, mix 50 μL of d2-conjugate antibody with 950 μL of detection buffer. Similarly, mix 50 μL of Cryptate antibody with 950 μL of detection buffer. Then mix the two diluted antibodies together. • 5. Dispense 3.4 μL the antibody buffer to wells of an empty assay plate. Seal the plate and centrifuge plate 30 sec×1000 rpm. • 6. At the end of the 4° C. lysis, centrifuge the lysate plates 3 mins×1500 rpm. • 7. Use the Bravo to transfer 13.6 μL of lysate from cell culture plate to assay plate.
(§3) Then incubate assay plate for 2 hrs at room temperature. […] At the end of incubation, read plate on the Envision after centrifuging plate 30 sec× • 1000 rpm.

KRas G12D = KRas G12D (Homo sapiens, UniProt P01116, G12D); experiment: biochemical;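 note: TR-FRET displacement binding assay on KRas, read after a one-hour incubation at room temperature, IC50 fitted from percent-of-control values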
Chain of KRas G12D (P01116 1-169 isoform P01116-2 G12D): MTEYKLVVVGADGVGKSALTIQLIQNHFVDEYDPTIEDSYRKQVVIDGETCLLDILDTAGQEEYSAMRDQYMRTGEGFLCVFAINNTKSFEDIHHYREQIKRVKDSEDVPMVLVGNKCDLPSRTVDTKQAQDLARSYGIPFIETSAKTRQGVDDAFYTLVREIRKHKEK
Procedure: (§4) The ability of a compound to bind to KRas was measured using a TR-FRET displacement assay. […] After a 60-minute incubation at room temperature, the reaction was measured using a BMG LABTECH CLARIO star Plus via TR-FRET. […] The POC values were fit to a 4-parameter IC50 equation and the IC50 value reported.

KRas G12V = KRas G12V (Homo sapiens, UniProt P01116, G12V); experiment: biochemical;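 note: KRas binding measured by TR-FRET displacement at room temperature, IC50 fitted from percent of control values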
Chain of KRas G12V (P01116 1-169 isoform P01116-2 G12V): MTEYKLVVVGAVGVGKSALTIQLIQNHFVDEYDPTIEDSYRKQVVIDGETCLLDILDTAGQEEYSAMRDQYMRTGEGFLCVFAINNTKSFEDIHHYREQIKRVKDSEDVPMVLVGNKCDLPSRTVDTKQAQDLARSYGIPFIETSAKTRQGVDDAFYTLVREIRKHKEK
Procedure: as §4

pERK in PSN1 cells = experiment: Inhibition of KRas phosphorylation of ERK (Cisbio HTRF pERK assay); settings: Homo sapiens, PSN1, 3 h, read-out: Inhibition (HTRF IC50) of KRas-mediated Phosphorylation of ERK, PSN1
Procedure: as §2, §3

pERK in H727 cells = experiment: as above; settings: Homo sapiens, NCI-H727, read-out: Inhibition (HTRF IC50) of KRas-mediated Phosphorylation of ERK, H727
pERK in H460 cells = experiment: as above; settings: Homo sapiens, NCI-H460, read-out: Inhibition (HTRF IC50) of KRas-mediated Phosphorylation of ERK, H460
pERK in ASPC1 cells = experiment: as above; settings: Homo sapiens, ASPC1, read-out: Inhibition (HTRF IC50) of KRas-mediated Phosphorylation of ERK, AsPC-1
Procedure: as §2, §3

pERK in MKN1 cells = experiment: as above; settings: Homo sapiens, MKN-1, 3 h, read-out: Inhibition (HTRF IC50) of KRas-mediated Phosphorylation of ERK, MKN1
pERK in H358 cells = experiment: as above; settings: Homo sapiens, NCI-H358, read-out: Inhibition (HTRF IC50) of KRas-mediated Phosphorylation of ERK, H358
KRas G12R = KRas G12R (Homo sapiens, UniProt P01116, G12R); experiment: biochemical;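 note: TR-FRET displacement assay of compound binding to KRas, read after one hour at room temperature, potency from a four-parameter fit of percent-of-control values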
Chain of KRas G12R (P01116 1-169 isoform P01116-2 G12R): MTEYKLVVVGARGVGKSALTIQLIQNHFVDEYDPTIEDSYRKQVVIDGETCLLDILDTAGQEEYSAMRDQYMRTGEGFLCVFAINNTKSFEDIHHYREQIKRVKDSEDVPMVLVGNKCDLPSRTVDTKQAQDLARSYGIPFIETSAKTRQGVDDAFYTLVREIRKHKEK
Procedure: as §4

[1] = tested on: phospho-ERK in NCI-H727 (G12V) cells; experiment: Inhibition of KRas-mediated phosphorylation of ERK (in-cell western); assay type: cell-based; settings: Homo sapiens, NCI-H727, 3 h, 3 hours compound, phospho-ERK normalized to GAPDH
Outline: (§1)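 Cells were treated with compound for 3 hours (0.5% DMSO final), then fixed with formaldehyde and permeabilized with ice-cold methanol. Phospho-ERK (Thr202/Tyr204) was detected by antibody and normalized to GAPDH per well, expressed as percent of DMSO control, and IC50 obtained by 4-parameter fit.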

[2] = tested on: phospho-ERK in AsPC-1 (G12D) cells; experiment: as above; assay type: cell-based; settings: Homo sapiens, ASPC1, 3 h, 3 hours compound, phospho-ERK normalized to GAPDH
Outline: as §1

[3] = tested on: phospho-ERK in NCI-H460 (Q61H) cells; experiment: as above; assay type: cell-based; settings: Homo sapiens, NCI-H460, 3 h, 3 hours compound, phospho-ERK normalized to GAPDH
Outline: as §1

pERK in A549 cells = experiment: Inhibition of KRas phosphorylation of ERK (Cisbio HTRF pERK assay); settings: Homo sapiens, A549, read-out: Inhibition (HTRF IC50) of KRas-mediated Phosphorylation of ERK, A549

Row | Structure (SMILES) | IC50 (pERK in HCT116 cells) [nM] | IC50 (KRas G12D) [nM] | IC50 (KRas G12V) [nM] | IC50 (pERK in PSN1 cells) [nM] | IC50 (pERK in H727 cells) [nM] | IC50 (pERK in H460 cells) [nM] | IC50 (pERK in ASPC1 cells) [nM] | IC50 (pERK in MKN1 cells) [nM] | IC50 (pERK in H358 cells) [nM] | IC50 (KRas G12R) [nM] | IC50 (pERK in A549 cells) [nM] | IC50 [1] [nM] | IC50 [2] [nM] | IC50 [3] [nM]
1 | CCc1c(F)ccc2cc(O)cc(-c3ncc4c(N5CCCC(O)CC5)nc(OC[C@@]56CCCN5C[C@H](F)C6)nc4c3F)c12 (stereo in doubt) [Example 346, 1-(7-(8-ethyl-7-fluoro-3-hydroxynaphthalen-1-yl)-8-fluoro-2-(((2R,7aS)-2-fluorohexahydro-1H-pyrrolizin-7a-yl)methoxy)pyrido[4,3-d]pyrimidin-4-yl)azepan-4-ol] | 133 | ≤ 2 | ≤ 2 | 7390 | 113 | 166 | 99 | 11 | 57 | ≤ 2 | – | – | – | –
2 | CCc1c(F)ccc2cc(O)cc(-c3ncc4c(N5CCOCC(O)C5)nc(OC[C@@]56CCCN5C[C@H](F)C6)nc4c3F)c12 (stereo partly drawn) [Example 345, 4-(7-(8-ethyl-7-fluoro-3-hydroxynaphthalen-1-yl)-8-fluoro-2-(((2R,7aS)-2-fluorotetrahydro-1H-pyrrolizin-7a(5H)-yl)methoxy)pyrido[4,3-d]pyrimidin-4-yl)-1,4-oxazepan-6-ol] | 296 | – | – | 8780 | 138 | 82 | 83 | 13 | 20 | – | – | – | – | –
3 | O=C1NC(=O)C2(CCCN(c3nc(OC[C@@]45CCCN4C[C@H](F)C5)nc4c(F)c(-c5cc(O)cc6ccc(F)c(F)c56)ncc34)C2)N1 (stereo partly drawn) [Example 444, 7-(7-(7,8-difluoro-3-hydroxynaphthalen-1-yl)-8-fluoro-2-(((2R,7aS)-2-fluorohexahydro-1H-pyrrolizin-7a-yl)methoxy)pyrido[4,3-d]pyrimidin-4-yl)-1,3,7-triazaspiro[4.5]decane-2,4-dione] | 1760 | 5 | ≤ 2 | ≥ 10000 | 1160 | 1560 | 1690 | 37 | – | ≤ 2 | 734 | 1740 | 2440 | 656
4 | O=C1CC2(CCCN(c3nc(OC[C@@]45CCCN4C[C@H](F)C5)nc4c(F)c(-c5cc(O)cc6ccc(F)c(F)c56)ncc34)C2)N1 (stereo partly drawn) [Example 452, 6-(7-(7,8-difluoro-3-hydroxynaphthalen-1-yl)-8-fluoro-2-(((2R,7aS)-2-fluorohexahydro-1H-pyrrolizin-7a-yl)methoxy)pyrido[4,3-d]pyrimidin-4-yl)-1,6-diazaspiro[3.5]nonan-2-one] | 1510 | 4 | ≤ 2 | 4080 | 165 | 639 | 204 | 41 | – | ≤ 2 | 224 | 793 | 182 | 154

The next lines start with results.

Row | IC50 (pERK in HCT116 cells) [nM] | IC50 (KRas G12D) [nM] | IC50 (KRas G12V) [nM] | IC50 (pERK in PSN1 cells) [nM] | IC50 (pERK in H727 cells) [nM] | IC50 (pERK in H460 cells) [nM] | IC50 (pERK in ASPC1 cells) [nM] | IC50 (pERK in MKN1 cells) [nM] | IC50 (pERK in H358 cells) [nM] | IC50 (KRas G12R) [nM] | IC50 (pERK in A549 cells) [nM] | Structure (SMILES) | IC50 [1] [nM] | IC50 [2] [nM] | IC50 [3] [nM]
5 | 5430 | ≤ 2 | ≤ 2 | ≥ 10000 | 871 | 713 | 192 | 80 | – | 5 | 1250 | CCc1c(F)ccc2cc(O)cc(-c3ncc4c(N5CCCC6(COC(=O)N6)C5)nc(OC[C@@]56CCCN5C[C@H](F)C6)nc4c3F)c12 (stereo partly drawn) [Example 478, 7-(7-(8-ethyl-7-fluoro-3-hydroxynaphthalen-1-yl)-8-fluoro-2-(((2R,7aS)-2-fluorohexahydro-1H-pyrrolizin-7a-yl)methoxy)pyrido[4,3-d]pyrimidin-4-yl)-3-oxa-1,7-diazaspiro[4.5]decan-2-one] | – | – | –
6 | 111 | 38 | 7 | ≥ 10000 | 100 | 47 | 240 | 6 | – | 6 | 215 | CCc1c(F)ccc2cc(O)cc(-c3ncc4c(N5CCOCC6(COC6)C5)nc(OC[C@@]56CCCN5C[C@H](F)C6)nc4c3F)c12 [Example 480, 5-ethyl-6-fluoro-4-(8-fluoro-2-(((2R,7aS)-2-fluorohexahydro-1H-pyrrolizin-7a-yl)methoxy)-4-(2,6-dioxa-9-azaspiro[3.6]decan-9-yl)pyrido[4,3-d]pyrimidin-7-yl)naphthalen-2-ol] | – | – | –
7 | 368 | ≤ 2 | ≤ 2 | ≥ 10000 | 205 | 305 | 395 | 41 | – | 3 | 298 | CCc1c(F)ccc2cc(O)cc(-c3ncc4c(N5C[C@H](O)CC[C@@H](O)C5)nc(OC[C@@]56CCCN5C[C@H](F)C6)nc4c3F)c12 [Example 490, (3R,6R)-1-(7-(8-ethyl-7-fluoro-3-hydroxynaphthalen-1-yl)-8-fluoro-2-(((2R,7aS)-2-fluorohexahydro-1H-pyrrolizin-7a-yl)methoxy)pyrido[4,3-d]pyrimidin-4-yl)azepane-3,6-diol] | – | – | –
8 | 474 | 27 | 8 | ≥ 10000 | 100 | 162 | 109 | 13 | – | 6 | 145 | CCc1c(F)ccc2cc(O)cc(-c3ncc4c(N5CCOCC(OC)C5)nc(OC[C@@]56CCCN5C[C@H](F)C6)nc4c3F)c12 (stereo partly drawn) [Example 499, 5-ethyl-6-fluoro-4-(8-fluoro-2-(((2R,7aS)-2-fluorotetrahydro-1H-pyrrolizin-7a(5H)-yl)methoxy)-4-(6-methoxy-1,4-oxazepan-4-yl)pyrido[4,3-d]pyrimidin-7-yl)naphthalen-2-ol] | – | – | –
9 | – | ≤ 2 | ≤ 2 | ≥ 10000 | 50 | 327 | 14 | 31 | 16 | ≤ 2 | – | CCc1c(F)ccc2cc(O)cc(-c3ncc4c(N5CCCn6nc(C(=O)N(C)C)c(F)c6C5)nc(OC[C@@]56CCCN5C[C@H](F)C6)nc4c3F)c12 [Example 505, 5-(7-(8-ethyl-7-fluoro-3-hydroxynaphthalen-1-yl)-8-fluoro-2-(((2R,7aS)-2-fluorohexahydro-1H-pyrrolizin-7a-yl)methoxy)pyrido[4,3-d]pyrimidin-4-yl)-3-fluoro-N,N-dimethyl-5,6,7,8-tetrahydro-4H-pyrazolo[1,5-a][1,4]diazepine-2-carboxamide] | – | – | –
10 | 314 | 6 | 6 | 6140 | 338 | 206 | 144 | 89 | – | 12 | 211 | CCc1c(F)ccc2cc(O)cc(-c3ncc4c(N5CCCC6(CCC(F)(F)C6)C5)nc(OC[C@@]56CCCN5C[C@H](F)C6)nc4c3F)c12 (stereo partly drawn) [Example 509, 4-(4-(2,2-difluoro-7-azaspiro[4.5]decan-7-yl)-8-fluoro-2-(((2R,7aS)-2-fluorohexahydro-1H-pyrrolizin-7a-yl)methoxy)pyrido[4,3-d]pyrimidin-7-yl)-5-ethyl-6-fluoronaphthalen-2-ol] | – | – | –
11 | 954 | 10 | 8 | 5100 | 388 | 397 | 186 | 73 | – | 9 | 515 | CCc1c(F)ccc2cc(O)cc(-c3ncc4c(N5CCCC6(CCC(O)C6)C5)nc(OC[C@@]56CCCN5C[C@H](F)C6)nc4c3F)c12 (stereo partly drawn) [Example 510, 7-(7-(8-ethyl-7-fluoro-3-hydroxynaphthalen-1-yl)-8-fluoro-2-(((2R,7aS)-2-fluorotetrahydro-1H-pyrrolizin-7a(5H)-yl)methoxy)pyrido[4,3-d]pyrimidin-4-yl)-7-azaspiro[4.5]decan-2-ol] | – | – | –
